In ChEMBL document CHEMBL5316370, “Laeviganoids A-T, ent-Clerodane-Type Diterpenoids from Croton laevigatus” (2023):
Activity calls are given as the source filed them. The calls are words filed in the database; no cut-off is given here.

Tests used:
RAW264.7 [1] = assay: Anti-inflammatory activity against IL-4/IL-13 stimulated mouse RAW264.7 cells assessed as inhibition of IL-10 secretion at 20 uM incubated for 48 hrs by ELISA method; type: functional, cell-based
RAW264.7 [2] = assay: Anti-inflammatory activity against IL-4/IL-13 stimulated mouse RAW264.7 cells assessed as upregulation of TNFalpha secretion at 20 uM incubated for 48 hrs by ELISA method; type: functional, cell-based
RAW264.7 [3] = assay: Anti-inflammatory activity against IL-4/IL-13 stimulated mouse RAW264.7 cells assessed as inhibition of IL-10 secretion at 5 to 20 uM incubated for 48 hrs by ELISA method relative to control; type: functional; details: dose 5-20 µM
RAW264.7 [4] = assay: Anti-inflammatory activity against IL-4/IL-13 stimulated mouse RAW264.7 cells assessed as upregulation of TNFalpha secretion at 5 to 20 uM incubated for 48 hrs by ELISA method relative to control; type: functional; details: dose 5-20 µM

Compound	inhibition (RAW264.7 [1])	Activity (RAW264.7 [2])	inhibition (INH) (RAW264.7 [3])	Activity (RAW264.7 [4])
C[C@@H]1C(=O)CC[C@@H]2[C@@](C)(CCc3ccoc3)[C@H](CO)CC[C@]21C	Active			
C[C@]12[C@H](OC(=O)c3ccccc3)[C@@H](c3ccoc3)OC(=O)[C@@H]1CC[C@]1(C)[C@@H]2CC[C@@H](O)[C@]1(C)O	Active			
C=C1[C@H](O)CC[C@@H]2[C@@](C)(CC(=O)c3ccoc3)[C@H](C)CC[C@@]12C	Active			
COC(=O)[C@@H]1CC[C@]2(C)[C@H](CC[C@@H](O)[C@]2(C)O)[C@@]1(C)CC(=O)c1ccoc1	Active	Active		
C[C@@H]1CC[C@]2(C)[C@H](CCC(=O)[C@H]2C)[C@@]1(C)CCc1ccoc1	Active	Active		
C[C@]12C(=CC[C@]3(C)[C@@H]1CC[C@@H](O)[C@]3(C)O)C(=O)O[C@H](c1ccoc1)[C@H]2OC(=O)c1ccccc1	Active			
CO[C@@]1(C)[C@H](O)CC[C@@H]2[C@@]3(C)[C@H](OC(=O)c4ccccc4)[C@@H](c4ccoc4)OC(=O)[C@@H]3CC[C@]21C	Active	Active	>40%	>40%
C[C@@H]1CC[C@]2(C)[C@H](CCC(=O)[C@H]2C)[C@@]1(C)CC(=O)c1ccoc1	Active			
C[C@]12C[C@@H](c3ccoc3)OC(=O)[C@@H]1CC[C@]1(C)[C@@H]2CC[C@H](Cl)[C@@]1(C)O	Active			
CC(=O)O[C@@H]1[C@@H](c2ccoc2)OC(=O)[C@@H]2CC[C@]3(C)[C@H](CC[C@@H](O)[C@]3(C)O)[C@@]12C	Active			
CC(=O)O[C@@H]1[C@@H](c2ccoc2)OC(=O)[C@@H]2CC[C@@]3(C)C(C)C(=O)CC[C@@H]3[C@@]12C (stereo partly drawn)	Active			
C[C@]1(C[C@H](O)c2ccoc2)[C@H](CO)CC[C@]2(C)[C@@H]1CC[C@@H](O)[C@]2(C)O	Active	Active		
CC1=CC(=O)O[C@@H]1C[C@@]1(C)[C@H](C)CC[C@@]2(C)C(C)=CC(=O)C[C@H]12	Active			
CC1=CCC[C@@H]2[C@@]3(C)C[C@@H](c4ccoc4)OC(=O)[C@@H]3CC[C@@]12C	Active			
C=C1[C@H](O)CC[C@@H]2[C@@](C)(C[C@H](O)c3ccoc3)[C@H](C)CC[C@@]12C	Active			
C[C@@H]1CC[C@]2(C)[C@H](CC[C@@H](O)[C@]2(C)O)[C@@]1(C)CCc1ccoc1	Active	Active		
C[C@]12C[C@@H](c3ccoc3)OC(=O)[C@@H]1CC[C@]1(C)[C@@H]2CCC(=O)[C@@]1(C)O	Active			
CC1=CC(=O)O[C@@H]1C[C@@]1(C)[C@H](C)CC[C@@]2(C)C(C)=CCC[C@H]12	Active			
C[C@]12C[C@@H](c3ccoc3)OC(=O)[C@@H]1CC[C@]1(C)[C@@H]2CCC(=O)[C@]1(C)O	Active			
CCO[C@@]1(C)[C@H](O)CC[C@@H]2[C@@](C)(CC(=O)c3ccoc3)[C@H](C)CC[C@]21C	Active	Active	>40%	>40%
C/C(=C\CO)CC[C@@]1(C)[C@H](C)CC[C@@]2(C)C(CO)=CCC[C@H]12	Active	Active	>40%	>40%
CC1=CC(=O)O[C@H]1C[C@@]1(C)[C@H](C)CC[C@@]2(C)C(C)=CCC[C@H]12	Active			
COC(=O)[C@@H]1CC[C@]2(C)[C@H](CC[C@@H](O)[C@]2(C)OC)[C@@]1(C)CC(=O)c1ccoc1	Active	Active		
CO[C@@]1(C)[C@H](O)CC[C@@H]2[C@@](C)(C[C@H](O)c3ccoc3)[C@H](C)CC[C@]21C	Active	Active	>40%	>40%
C[C@@H]1CC[C@]2(C)[C@H](CC[C@@H](O)[C@]2(C)O)[C@@]1(C)CC(=O)c1ccoc1	Active			
C[C@]1(CCc2ccoc2)[C@H](CO)CC[C@]2(C)[C@@H]1CC[C@@H](O)[C@]2(C)O	Active			
